Earlier results, collected in PubChem BioAssay AID1259409 (Chemical Carcinogenesis Research Information System (CCRIS), 2018).

System: rodent chemically induced tumor inhibition, incidence and multiplicity
Assay: CCRIS tumor inhibitor studies

SMILES | tumour outcome (control, treated, inhibition, significance) (Carcinogen: AZOXYMETHANE, 25843-45-2, Dose [Inhibitor]: 0, 0.02% IN DIET IN WK 1-3 OF STUDY FOLLOWED BY BASAL DIET FOR DURATION OF STUDY (STUDY DURATION: 1 YR), Route [Inhibitor]: ORAL, Species: RAT, Strain/Sex: F344/MALE, Target Tissue: Type of Lesion: LARGE INTESTINE: ADENOCARCINOMA, Dose [Carcinogen]: 15 MG/KG BW 1/WK IN WK 1 AND 2 OF STUDY, Promoter: NONE USED) | tumour outcome (control, treated, inhibition, significance) (Carcinogen: AZOXYMETHANE, 25843-45-2, Dose [Inhibitor]: 0, 0.02% IN DIET IN WK 1-3 OF STUDY FOLLOWED BY BASAL DIET FOR DURATION OF STUDY (STUDY DURATION: 1 YR), Route [Inhibitor]: ORAL, Species: RAT, Strain/Sex: F344/MALE, Target Tissue: Type of Lesion: LARGE INTESTINE: ADENOMA, Dose [Carcinogen]: 15 MG/KG BW 1/WK IN WK 1 AND 2 OF STUDY, Promoter: NONE USED) | tumour outcome (control, treated, inhibition, significance) (Carcinogen: AZOXYMETHANE, 25843-45-2, Dose [Inhibitor]: 0, 0.02% IN DIET IN WK 1-3 OF STUDY FOLLOWED BY BASAL DIET FOR DURATION OF STUDY (STUDY DURATION: 1 YR), Route [Inhibitor]: ORAL, Species: RAT, Strain/Sex: F344/MALE, Target Tissue: Type of Lesion: SMALL INTESTINE: ADENOCARCINOMA, Dose [Carcinogen]: 15 MG/KG BW 1/WK IN WK 1 AND 2 OF STUDY, Promoter: NONE USED) | tumour outcome (control, treated, inhibition, significance) (Carcinogen: 7,12-DIMETHYLBENZ[A]ANTHRACENE, 57-97-6, Dose [Inhibitor]: 100 UG IN 0.2 ML ACETONE ONCE 5 MIN BEFORE CARCINOGEN TREATMENT (STUDY DURATION: 31 WK), Route [Inhibitor]: DERMAL, Species: MOUSE, Strain/Sex: CD-1/FEMALE, Target Tissue: Type of Lesion: SKIN: PAPILLOMA, Dose [Carcinogen]: 10 NMOL IN 0.2 ML ACETONE ONCE, Promoter: 12-O-TETRADECANOYLPHORBOL-13-ACETATE, 16561-29-8) | tumour outcome (control, treated, inhibition, significance) (Carcinogen: BENZO[A]PYRENE, 50-32-8, Dose [Inhibitor]: 100 UG IN 0.2 ML ACETONE ONCE 5 MINUTES BEFORE CARCINOGEN TREATMENT (STUDY DURATION: 31 WK), Route [Inhibitor]: DERMAL, Species: MOUSE, Strain/Sex: CD-1/FEMALE, Target Tissue: Type of Lesion: SKIN: PAPILLOMA, Dose [Carcinogen]: 400 NMOL IN 0.2 ML ACETONE ONCE, Promoter: 12-O-TETRADECANOYLPHORBOL-13-ACETATE, 16561-29-8)
CC(C)=CC[C@@H](O)C1=CC(=O)c2c(O)ccc(O)c2C1=O | 13/27 (48%), 6/20 (30%), 38%, not significant | 6/27 (22%), 4/20 (20%), 9%, not significant | 6/27 (22%), 1/20 (5%), 77%, not significant | – | –
c1ccc(Cn2ccnc2)cc1 | – | – | – | 87%, 80%, 8%, not calculated | 90%, 78%, 13%, not calculated
